Data published in patent publication US9603354B2, “Protective solutions for organs” (DR. FRANZ KOEHLER CHEMIE GMBH, priority 2002, dated 2017).

How the values were obtained:
hepatocytes = assay: Cell damage of hepatocytes by hydrogenperoxide (FIG. 5); format: cell-based; details: 1 mM/l in N4 solution + 20 mM/l H2O2
Description: 1: N4+20 mM/l H2O2 • graph no. 2: N4+20 mM/l H2O2+1 mM/l 4-chloro-N-methyl-benzohydroxamic acid • graph no. 3: N4+20 mM/l H2O2+1 mM/l 2-hydroxy-3-methyl-isocarbosteryl • graph no. 4: N4+20 mM/l H2O2+1 mM/l 3,4,5-trimethoxy-N-methyl-benzohydroxamic acid • graph no. 5: N4+20 mM/l H2O2+1 mM/l 3,4-dimethoxy-N-methyl-hydroxamic acid, N4 meaning the solution according to example II given hereinafter, but without Trolox and without hydroxamic acid derivative.

[1] = tested on: iron-dependent hypothermic injury, cold-induced apoptosis; assay: Inhibition of iron-dependent hypothermic injury / cold-induced apoptosis by iron-chelating agents; format: cell-based
Description: Iron-chelating agents may serve for the inhibition of the iron-dependent hypothermic injury, or of the cold-induced apoptosis.

rat hepatocytes [2] = assay: Hypothermic injury of cultivated rat hepatocytes in UW solution, LDH release (FIG. 2); format: cell-based; details: 1 mM; 24 hrs at 4° C. in UW solution, aerobic; reheated 3 hrs at 37° C. in cell culture medium
Description: Cultivated rat hepatocytes were incubated for 24 hrs at 4° C. in a University of Wisconsin solution (UW) under aerobic conditions in the presence of, and in the absence of 1 mM of 3,4-dimethoxy-N-methyl-benzohydroxamic acid, and subsequently reheated for 3 hrs in a cell culture medium (37° C.). The secretion of cytosolic lactate […] (LDH) served as the parameter of the cell damage.

[3] = Neutralization curve / buffer capacity (FIG. 3); format: physicochemical; details: for usable buffer capacity in the range of the physiological pH value: based on the ratio of spent base to substrate
Description: The usable buffer capacity in the range of the physiological pH value; with N-acetylhistidine 60%, and with histidine 30% based on the ratio of spent base to substrate.

rat hepatocytes [4] = assay: Toxicity of histidine under warm conditions in cultivated rat hepatocytes (FIG. 4); format: cell-based; details: 198 mM; 5 hrs at 37° C., aerobic, Krebs-Henseleit buffer, pH 7.2
Description: Cultivated rat hepatocytes were incubated for 5 hrs at 37° C. under aerobic conditions in the presence of, and in the absence of 198 mM of L-histidine, or 198 mM of N-acetylhistidine. The base solution was Krebs-Henseleit buffer (KH), a physiological saline solution often used in cell cultures; the NaCl concentration of the histidine (derivative) containing solution was decreased by 99 mM and the histidine (derivative) solution was adjusted by the addition of HCl or NAOH to pH 7.2.

[5] = tested on: rat liver endothelial cells; assay: Hypothermic injury of cultivated rat liver endothelial cells, LDH release (FIG. 1); format: cell-based; details: 1 mM; 72 hrs at 4° C. in UW solution, aerobic; rewarmed 3 hrs at 37° C. in cell culture medium
Description: Cultivated rat liver endothelial cells were incubated for 72 hrs at 4° C. in University of Wisconsin solution (UW) under aerobic conditions in the presence of, and in the absence of 1 mM of salicyl-N-methylhydroxamic acid, and subsequently rewarmed for 3 hrs in a cell culture medium (37° C.). The release of cytosolic lactate dehydrogenase (LDH) served as the parameter of the cell damage.

Compound	protection from cell damage by hydrogenperoxide (hepatocytes)	effectiveness in avoiding iron-dependent hypothermic injury [1]	also measured
Cc1cc2ccccc2c(=O)n1O [2-hydroxy-3-methyl-isocarbosteryl, 2-hydroxy-3-methyl-isocarbostyril]	protection		
O=C(O)CN(CCN(CC(=O)O)CC(=O)O)CC(=O)O [EDTA]		ineffective	
COc1ccc(C(=O)N(C)O)cc1OC [3,4-dimethoxy-N-methyl-benzohydroxamic acid]	protection		inhibition of hypothermic injury (cytosolic LDH) (rat hepatocytes [2]): inhibition of hypothermic injury
CC(=O)N[C@@H](Cc1c[nH]cn1)C(=O)O [N-acetylhistidine]			usable buffer capacity in the range of the physiological pH value [3]: 60%; buffer capacity improved by factor compared to histidine/histidine HCl ([3]; factor versus histidine/histidine HCl): 2
N[C@@H](Cc1c[nH]cn1)C(=O)O [histidine, L-histidine]		ineffective	toxicity under warm conditions (rat hepatocytes [4]): toxicity; usable buffer capacity in the range of the physiological pH value [3]: 30%
CN(O)C(=O)c1ccccc1O [salicyl-N-methylhydroxamic acid]			inhibition of hypothermic injury (release of cytosolic LDH) [5]: inhibition of hypothermic injury
O=c1c2ccccc2nnn1O [3,4-dihydro-3-hydroxy-4oxo-1,2,3-benzotriazine]		ineffectiveness	
COc1cc(C(=O)N(C)O)cc(OC)c1OC [3,4,5-trimethoxy-N-methyl-benzohydroxamic acid]	protection		
CN(O)C(=O)c1ccc(Cl)cc1 [4-chloro-N-methyl-benzohydroxamic acid]	protection		
O=C1CCC(=O)N1O [N-hydroxysuccinimide]		ineffectiveness	
